Test results from patent US7879876B2, “Sulfonamide derivatives and use thereof for the modulation of metalloproteinases” (Merck Serono SA, priority 2005, dated 2011).

Assays:
Type in all cases: biochemical
[1] = molecular target: MMP-14 (Homo sapiens, UniProt P50281); assay: MMP-14 enzyme inhibition assay (coumarin-labelled peptide substrate); settings: read-out: percentage inhibition MMP14
Method in brief: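 Recombinant human enzyme, APMA-activated if necessary, was incubated with McaPLGLDpaAR substrate and compound (10 concentrations in duplicate, 100 μM to 5.1 nM) in Tris-HCl pH 7.6 with NaCl, CaCl2 and Brij 35 for 2 h at 37 °C. Fluorescence was read at 320/405 nm, and IC50 was taken from a four-parameter fit.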

[2] = molecular target: T1, gelatinase A (MMP-2) (Homo sapiens, UniProt P08253); assay: MMP-2 enzyme inhibition assay (coumarin-labelled peptide substrate); settings: read-out: IC50 MMP2
T1 sequence (P08253 110-660): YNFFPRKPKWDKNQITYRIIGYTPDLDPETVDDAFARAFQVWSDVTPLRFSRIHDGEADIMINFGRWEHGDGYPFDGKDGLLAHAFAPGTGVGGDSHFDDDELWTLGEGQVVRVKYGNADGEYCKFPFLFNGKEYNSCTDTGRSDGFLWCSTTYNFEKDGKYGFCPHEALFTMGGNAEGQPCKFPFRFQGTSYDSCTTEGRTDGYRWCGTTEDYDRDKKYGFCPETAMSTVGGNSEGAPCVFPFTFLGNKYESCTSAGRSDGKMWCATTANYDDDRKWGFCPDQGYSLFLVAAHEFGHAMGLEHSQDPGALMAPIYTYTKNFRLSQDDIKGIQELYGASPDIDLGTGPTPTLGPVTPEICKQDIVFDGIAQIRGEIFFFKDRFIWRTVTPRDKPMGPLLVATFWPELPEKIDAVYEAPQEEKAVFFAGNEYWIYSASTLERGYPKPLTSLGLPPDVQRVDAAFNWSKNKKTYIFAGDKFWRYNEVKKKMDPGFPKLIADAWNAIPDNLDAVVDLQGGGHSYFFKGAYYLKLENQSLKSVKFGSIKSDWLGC
Method in brief: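 Recombinant human MMP-2, APMA-activated if necessary, run as for the MMP-9 protocol: McaPLGLDpaAR substrate (8 μM working dilution) in 100 mM Tris-HCl pH 7.6, 100 mM NaCl, 10 mM CaCl2, 0.05% Brij 35; ten 3-fold concentrations (100 μM–5.1 nM) in duplicate, 2 h at 37° C. Fluorescence ex 320/em 405 nm, unstopped; IC50 from four-parameter fit.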

[3] = molecular target: metalloelastase (MMP-12) (Homo sapiens, UniProt P39900); assay: MMP-12 enzyme inhibition assay (coumarin-labelled peptide substrate); settings: read-out: IC50 MMP12
metalloelastase (MMP-12), sequence (P39900 106-470): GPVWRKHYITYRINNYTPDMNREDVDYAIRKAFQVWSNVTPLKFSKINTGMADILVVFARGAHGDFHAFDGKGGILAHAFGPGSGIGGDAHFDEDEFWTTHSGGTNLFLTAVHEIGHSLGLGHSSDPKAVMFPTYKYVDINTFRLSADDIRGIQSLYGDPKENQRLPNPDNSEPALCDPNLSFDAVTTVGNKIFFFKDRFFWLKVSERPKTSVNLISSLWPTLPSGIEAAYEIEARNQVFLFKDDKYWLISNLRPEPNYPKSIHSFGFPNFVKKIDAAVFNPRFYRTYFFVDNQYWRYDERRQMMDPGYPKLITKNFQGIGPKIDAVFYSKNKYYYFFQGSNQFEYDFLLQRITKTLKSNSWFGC
Method in brief: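 Recombinant human MMP-12 assayed per the MMP-9 protocol: Tris-HCl pH 7.6 buffer with NaCl, CaCl2, Brij 35; McaPLGLDpaAR substrate, compounds 100 μM–5.1 nM in duplicate, 2 h at 37° C. Fluorescence read at 405 nm (320 nm excitation) without stopping; IC50 from four-parameter fit.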

inhibition at 0.1 µM [1] [%]	inhibition at 5 µM [1] [%]	IC50 [2] [nM]	IC50 [3] [nM]	SMILES
0	73	78	6	O=CN(O)C(CS(=O)(=O)N1CCc2cc(C(F)(F)F)ccc2C1)C1CCCC1 (stereo not drawn) [Example 25, N-(1-cyclopentyl-2-{[6-(trifluoromethyl)-3,4-dihydro-isoquinolin-2(1H)-yl]sulfonyl}ethyl)-N-hydroxyformamide]
	82	60	10	CC(C)(C)CC(CS(=O)(=O)N1Cc2ccc(F)cc2C1)N(O)C=O (stereo not drawn) [Example 26, N-(1-{[(5-fluoro-1,3-dihydro-2H-isoindol-2-yl)sulfonyl]methyl}-3,3-dimethylbutyl)-N-hydroxyformamide]
	41	58	6.9	O=CN(O)[C@H](CS(=O)(=O)N1CCc2ccc(C(F)(F)F)cc2C1)[C@H]1CCCO1 [Example 27, N-hydroxy-N-((1S)-1-[(2R)-tetrahydrofuran-2-yl]-2-{[7-(trifluoromethyl)-3,4-dihydroisoquinolin-2(1H)-yl]sulfonyl}ethyl)formamide]
	62	45	3.9	CC1(C)OC[C@H](C(CS(=O)(=O)N2CCc3ccc(C(F)(F)F)cc3C2)N(O)C=O)O1 (stereo partly drawn) [Example 28, N-(1-[(4S)-2,2-dimethyl-1,3-dioxolan-4-yl]-2-{[7-(trifluoro-methyl)-3,4-dihydroisoquinolin-2(1H)-yl]sulfonyl}ethyl)-N-hydroxyformamide]
	78	150	14	O=CN(O)[C@H](CS(=O)(=O)N1Cc2ccc(F)cc2C1)[C@H]1CCCO1 [Example 29, N-{(1S)-2-[(5-fluoro-1,3-dihydro-2H-isoindol-2-yl)-sulfonyl]-1-[(2R)-tetrahydrofuran-2-yl]ethyl}-N-hydroxyformamide]
	38	880	32	CCC#CCC(C)(C)C(CS(=O)(=O)N1CCc2cc(C(F)(F)F)ccc2C1)N(O)C=O (stereo not drawn) [Example 30, N-[2,2-dimethyl-1-({[6-(trifluoromethyl)-3,4-dihydro-isoquinolin-2(1H)-yl]sulfonyl}methyl)hept-4-yn-1-yl]-N-hydroxyformamide]
	19	939	40	CC(C)(Cc1ccccc1)C(CS(=O)(=O)N1CCc2cc(C(F)(F)F)ccc2C1)N(O)C=O (stereo not drawn) [Example 31, N-[2,2-dimethyl-3-phenyl-1-({[6-(trifluoromethyl)-3,4-dihydroisoquinolin-2(1H)-yl]sulfonyl}methyl)propyl]-N-hydroxyformamide]
	14	> 5000	168	O=CN(O)[C@@H](CS(=O)(=O)N1CCc2ccc(C(F)(F)F)cc2C1)[C@H]1CCCO1 [Example 32, N-hydroxy-N-((1R)-1-[(2R)-tetrahydrofuran-2-yl]-2-{[7-(trifluoromethyl)-3,4-dihydroisoquinolin-2(1H)-yl]sulfonyl}ethyl)formamide]
	30	151	27	COc1ccc2c(c1)CN(S(=O)(=O)CC(CCC1CCCO1)N(O)C=O)CC2 (stereo not drawn) [Example 33, N-hydroxy-N-[1-{[(7-methoxy-3,4-dihydroisoquinolin-2(1H)-yl)sulfonyl]methyl}-3-(tetrahydrofuran-2-yl)propyl]formamide]
3	82	35	6	CCC(CC)C(CS(=O)(=O)N1CCc2cc(Cl)c(Cl)cc2C1)N(O)C=O (stereo not drawn) [Example 34, N-(1-{[(6,7-dichloro-3,4-dihydroisoquinolin-2(1H)-yl)-sulfonyl]methyl}-2-ethylbutyl)-N-hydroxyformamide]
7	85	62	4.2	CCC(CC)C(CS(=O)(=O)N1CCc2cc(C(C)C)ccc2C1)N(O)C=O (stereo not drawn) [Example 35, N-(2-ethyl-1-{[(6-isopropyl-3,4-dihydroisoquinolin-2(1H)-yl)sulfonyl]methyl}butyl)-N-hydroxyformamide]
3	75	41	5.7	CCC(CC)C(CS(=O)(=O)N1CCc2ccc(Br)cc2C1)N(O)C=O (stereo not drawn) [Example 36, N-(1-{[(7-bromo-3,4-dihydroisoquinolin-2(1H)-yl)sulfonyl]-methyl}-2-ethylbutyl)-N-hydroxyformamide]
8	83	35	4.2	CCC(CC)C(CS(=O)(=O)N1CCc2cc(C(F)(F)F)ccc2C1)N(O)C=O (stereo not drawn) [Example 37, N-[2-ethyl-1-({[6-(trifluoromethyl)-3,4-dihydroisoquinolin-2(1H)-yl]sulfonyl}methyl)butyl]-N-hydroxyformamide]
	49	71	7.2	CCC(CC)C(CS(=O)(=O)N1CCc2ccc(OC)cc2C1)N(O)C=O (stereo not drawn) [Example 38, N-(2-ethyl-1-{[(7-methoxy-3,4-dihydroisoquinolin-2(1H)-yl)sulfonyl]methyl}butyl)-N-hydroxyformamide]
10	87	16	4.1	CC(C)C(CS(=O)(=O)N1CCc2cc(Cl)c(Cl)cc2C1)N(O)C=O (stereo not drawn) [Example 39, N-(1-{[(6,7-dichloro-3,4-dihydroisoquinolin-2(1H)-yl)-sulfonyl]methyl}-2-methylpropyl)-N-hydroxyformamide]
	54	77	15	CCCOc1ccc2c(c1)CN(S(=O)(=O)CC(CC(C)(C)C)N(O)C=O)CC2 (stereo not drawn) [Example 40, N-(3,3-dimethyl-1-{[(7-propoxy-3,4-dihydroisoquinolin-2(1H)-yl)sulfonyl]methyl}butyl)-N-hydroxyformamide]
5	74	87	11	CC(C)(C)CC(CS(=O)(=O)N1CCc2ccc(Cl)cc2C1)N(O)C=O (stereo not drawn) [Example 41, N-(1-{[(7-chloro-3,4-dihydroisoquinolin-2(1H)-yl)sulfonyl]-methyl}-3,3-dimethylbutyl)-N-hydroxyformamide]
15	88	31	4.4	CC(C)(C)CC(CS(=O)(=O)N1CCc2cc(Cl)c(Cl)cc2C1)N(O)C=O (stereo not drawn) [Example 42, N-(1-{[(6,7-dichloro-3,4-dihydroisoquinolin-2(1H)-yl)-sulfonyl]methyl}-3,3-dimethylbutyl)-N-hydroxyformamide]
14	89	21	3.2	CC(C)(C)CC(CS(=O)(=O)N1CCc2cc(C(F)(F)F)ccc2C1)N(O)C=O (stereo not drawn) [Example 43, N-[3,3-dimethyl-1-({[6-(trifluoromethyl)-3,4-dihydro-isoquinolin-2(1H)-yl]sulfonyl}methyl)butyl]-N-hydroxyformamide]
	92	25	1.5	CC(C)c1ccc2c(c1)CCN(S(=O)(=O)C[C@H]([C@H]1CCCO1)N(O)C=O)C2 [Example 45, N-hydroxy-N-{(1S)-2-[(6-isopropyl-3,4-dihydroisoquinolin-2(1H)-yl)sulfonyl]-1-[(2R)-tetrahydrofuran-2-yl]ethyl}formamide]
